{"source": "patent US10285382B2", "about": "(priority 2017, dated 2019)", "key": {"[1]": {"system": "bacteria", "details": "end of test period (0, 7, and 30 days), three locations; from about 70 total; FIGS. 9A-C", "procedure": "In addition, bacterial contamination in the egg room is assessed by placing blood agar plates at three locations in the room (East, North, and West) at 0, 7, and 30 days, and bacterial growth is assessed after 24 hours."}, "[2]": {"system": "MS2 Bacteriophage ATCC 15597-B1", "details": "DHP (+); 1 hour"}}}
{"smiles": "OO", "note": "[DHP, dry hydrogen peroxide]", "values": [{"measurement": "number of bacterial colonies on the blood agar plates, total", "setting": "[1]", "result": "about 30"}, {"measurement": "% Reduction vs. Control", "setting": "[2]", "result": 99.8, "unit": "%"}, {"measurement": "Log10 reduction", "setting": "[2]", "result": 3.54}, {"measurement": "Log10 reduction vs. Control", "setting": "[2]", "result": 2.70}, {"measurement": "Percent reduction", "setting": "[2]", "result": 99.97, "unit": "%"}]}
